Measurements published in US20190053492A1, “SUBSTITUTED PYRIDINE COMPOUNDS AS PESTICIDES” (Bayer CropScience Aktiengesellschaft, priority 2016, published 2019).
Where two headings read alike, the source gives them in different places.

What was measured:
[1] = log P by HPLC on reversed-phase column (C 18), EEC Directive 79/831 Annex V.A8; type: physicochemical; conditions: 55° C.; for LOGP_HCOOH: log P (HCOOH); for chromatographic logP: reversed-phase HPLC column (C 18)
Experimental: Temperature: 55° C. […] Called log P (HCOOH) in the table. […] Called log P (neutral) in the table.

Meloidogyne incognita = Meloidogyne incognita test; type: in vivo; conditions: application rate 20 ppm, after 14 days, lettuce
Experimental: Meloidogyne incognita Test Solvent: 125.0 parts by weight of acetone To produce a suitable active ingredient formulation, 1 part by weight of active ingredient is mixed with the stated amount of solvent and the concentrate is diluted with water to the desired concentration. Vessels are filled with sand, active ingredient solution, an egg/larvae suspension of the southern root-knot nematode (Meloidogyne incognita) and lettuce seeds. The lettuce seeds germinate and the plants develop. The galls develop on the roots. After 14 days, the nematicidal efficacy in % is determined by the formation of galls. 100% means that no galls were found; 0% means that the number of galls on the treated plants corresponds to the untreated control.

Spodoptera frugiperda = Spodoptera frugiperda spray test; type: in vivo; conditions: after 7 days, maize leaf discs
How it was run: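 Maize leaf discs were sprayed with compound formulated in acetone/DMF and emulsifier-containing water, dried, then infested with Spodoptera frugiperda caterpillars. Percent kill was scored after 7 days, from 100% (all dead) to 0% (none dead).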

Ctenocephalides felis = Ctenocephalides felis oral test; type: in vivo; conditions: application rate 100 ppm in citrated cattle blood, after 2 days, adult cat fleas
How it was run: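 About 20 unfed adult cat fleas fed through a parafilm membrane on citrated cattle blood dosed with compound from a DMSO formulation. Percent kill was scored after 2 days.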

Lucilia cuprina = Lucilia cuprina test; type: in vivo; conditions: application rate 100 ppm, after 2 days, L1 larvae
How it was run: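 Active ingredient dissolved in DMSO and diluted with water to the test concentration. About 20 first-instar sheep blowfly larvae placed on minced horsemeat containing the formulation; percentage of larvae killed scored after 2 days.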

Phaedon cochleariae = Phaedon cochleariae spray test; type: in vivo; conditions: after 7 days, Chinese cabbage leaf discs
How it was run: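 Chinese cabbage leaf discs sprayed with compound in acetone/DMF and emulsifier-containing water, then infested with mustard beetle larvae once dry. Efficacy in % scored after 7 days (100% = all larvae killed, 0% = none).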

Tetranychus urticae = Tetranychus urticae spray test, OP-resistant; type: in vivo; conditions: after 6 days, bean leaf discs
Experimental: Tetranychus urticae—Spray Test, OP-Resistant
Solvent: 78.0 parts by weight of acetone • • 1.5 parts by weight of dimethylformamide
Emulsifier: alkylaryl polyglycol ether
To produce a suitable active ingredient formulation, 1 part by weight of active ingredient is dissolved with the specified parts by weight of solvent and made up with water containing an emulsifier concentration of 1000 ppm until the desired concentration is attained. To produce further test concentrations, the formulation is diluted with emulsifier-containing water.
Discs of bean leaves (Phaseolus vulgaris) infested with all stages of the greenhouse red spider mite (Tetranychus urticae) are sprayed with an active ingredient formulation of the desired concentration.
After 6 days, the efficacy in % is determined. 100% means that all the spider mites have been killed; 0% means that no spider mites have been killed.

Musca domestica = Musca domestica test; type: in vivo; conditions: after 2 days, adult houseflies
Experimental: Musca domestica Test Solvent: dimethyl sulphoxide To produce a suitable active ingredient formulation, 10 mg of active ingredient are mixed with 0.5 ml of dimethyl sulphoxide, and the concentrate is diluted with water to the desired concentration. Vessels containing a sponge treated with sugar solution and the active ingredient formulation of the desired concentration are populated with 10 adult houseflies (Musca domestica). After 2 days, the kill in % is determined. 100% means that all of the flies have been killed; 0% means that none of the flies have been killed.

[2] = acidic range pH 2.7, 0.1% aqueous formic acid and acetonitrile, reversed-phase column (C 18)
[3] = log P, neutral range, HPLC on reversed-phase column (C 18)
[4] = log P (neutral), HPLC reversed-phase column (C 18)
[5] = acidic range at pH 2.7, 0.1% aqueous formic acid and acetonitrile, HPLC on reversed-phase column (C 18)

SMILES	LOGP_HCOOH [1, 2]	LOGP_NEUTRAL [1, 3]	LOGP_HCOOH [1, 5]	efficacy (caterpillars killed) (Spodoptera frugiperda; application rate 500 g/ha)	efficacy (kill in %) (Ctenocephalides felis)	efficacy (kill in %) (Lucilia cuprina)	efficacy (beetle larvae killed) (Phaedon cochleariae; application rate 500 g/ha)	efficacy (caterpillars killed) (Spodoptera frugiperda; application rate 100 g/ha)	efficacy (spider mites killed) (Tetranychus urticae; application rate 500 g/ha)	efficacy (beetle larvae killed) (Phaedon cochleariae; application rate 100 g/ha)	further results
N#Cc1cccc(CCNC(=O)c2cc(-c3ccc(OC(F)(F)F)cc3)cc(NC(=O)C3CC3)n2)c1 [Example I-091]	4.01	3.88		100%	95%	100%	100%	100%	90%		
O=C(NCc1ccc(N2CCCC2=O)cc1)c1cc(-c2ccc(OC(F)(F)F)cc2)cc(NC(=O)C2CC2)n1 [Example I-259]	3.55			100%			83%				LOGP_NEUTRAL [1, 4]: 3.58; nematicidal efficacy (formation of galls) (Meloidogyne incognita): 90%
N#Cc1ccc(CNC(=O)c2cc(-c3ccc(C(F)(F)C(F)(F)F)cc3)cc(NC(=O)C3CC3)n2)cc1 [Example I-182]		4.07	4.24	100%	100%	100%	100%	100%	90%	100%	
CC(NC(=O)c1cc(-c2ccc(OC(F)(F)F)cc2)cc(NC(=O)C2CC2)n1)c1ccc(C#N)cc1 (single isomer, unassigned) [Example I-218]		4.02	4.17	100%			100%	100%	90%	100%	efficacy (spider mites killed) (Tetranychus urticae; application rate 100 g/ha): 90%
N#CC1CCC(CNC(=O)c2cc(-c3ccc(C(F)(F)C(F)(F)F)c(F)c3)cc(NC(=O)C3CC3)n2)CC1 (centres unmarked) [Example I-185]		4.14	4.29	100%			100%	100%	90%	100%	
N#Cc1cc(F)c(CNC(=O)c2cc(-c3ccc(C(F)(F)F)cc3)cc(NC(=O)C3CC3)n2)cc1F [Example I-074]	4.05	3.90		100%	100%	100%	100%	100%		100%	efficacy (kill in %) (Musca domestica; application rate 100 ppm): 100%
Cn1ccc(-c2ccc(CNC(=O)c3cc(-c4ccc(OC(F)(F)F)cc4)cc(NC(=O)C4CC4)n3)cc2)n1 [Example I-100]	3.86	3.75		83%							efficacy (spider mites killed) (Tetranychus urticae; application rate 100 g/ha): 90%
N#Cc1ccc(CNC(=O)c2cc(-c3ccc(OC(F)(F)F)cc3)cc(NC(=O)C3CC3)n2)s1 [Example I-255]	3.90			100%				83%	90%		LOGP_NEUTRAL [1, 4]: 3.88
O=C(NCc1ccc([N+](=O)[O-])cc1)c1cc(-c2ccc(C(F)(F)C(F)(F)F)cc2)cc(NC(=O)C2CC2)n1 [Example I-196]		4.30	4.37	100%	100%	100%	100%	100%		100%	efficacy (kill in %) (Musca domestica; application rate 100 ppm): 80%
N#Cc1ccc(CNC(=O)c2cc(-c3ccc(OC(F)(F)C(F)Cl)cc3)cc(NC(=O)C3CC3)n2)cc1 (centres unmarked) [Example I-194]		3.74	3.81				83%		90%		efficacy (spider mites killed) (Tetranychus urticae; application rate 100 g/ha): 90%
O=C(NCc1ccccc1)c1cc(-c2ccc(OC(F)(F)F)cc2)cc(NC(=O)C2CC2)n1 [Example I-227]			4.23	100%			100%		90%		efficacy (spider mites killed) (Tetranychus urticae; application rate 100 g/ha): 90%

Second part, led by results:

LOGP_HCOOH [1, 2]	LOGP_NEUTRAL [1, 3]	LOGP_HCOOH [1, 5]	SMILES	efficacy (caterpillars killed) (Spodoptera frugiperda; application rate 500 g/ha)	efficacy (kill in %) (Ctenocephalides felis)	efficacy (kill in %) (Lucilia cuprina)	efficacy (beetle larvae killed) (Phaedon cochleariae; application rate 500 g/ha)	efficacy (caterpillars killed) (Spodoptera frugiperda; application rate 100 g/ha)	efficacy (spider mites killed) (Tetranychus urticae; application rate 500 g/ha)	efficacy (beetle larvae killed) (Phaedon cochleariae; application rate 100 g/ha)	further results
4.72			O=C(NN=Cc1ccc(C(F)(F)F)c(F)c1)c1cc(-c2ccc(OC(F)(F)F)cc2)cc(NC(=O)C2CC2)n1 [Example I-257]	100%							nematicidal efficacy (formation of galls) (Meloidogyne incognita): 90%
3.86	3.71		O=C(NC1CC1)c1cc(-c2ccc(SC(F)(F)F)cc2)cc(NC(=O)C2CC2)n1 [Example I-105]	100%	100%		100%	83%	100%	100%	
4.08	3.97		COC(=O)c1ccc(CNC(=O)c2cc(-c3ccc(OC(F)(F)F)cc3)cc(NC(=O)C3CC3)n2)cc1 [Example I-101]				83%		90%		
	3.26	3.29	COCCNC(=O)c1cc(-c2ccc(OC(F)(F)F)cc2)cc(NC(=O)C2CC2)n1 [Example I-177]								nematicidal efficacy (formation of galls) (Meloidogyne incognita): 90%
3.87	3.79		N#Cc1ccc(CNC(=O)c2cc(-c3ccc(C(F)(F)F)cc3)cc(NC(=O)C3CC3)n2)cc1F [Example I-026]	100%	100%	100%	100%	100%		100%	efficacy (kill in %) (Musca domestica; application rate 100 ppm): 100%
	3.21		CN(C(=O)c1cc(-c2ccc(C(F)(F)F)cc2)cc(NC(=O)C2CC2)n1)C1CC1 [Example I-036, N-Cyclopropyl-6-[(cyclopropylcarbonyl)amino]-N-methyl-4-[4-(trifluoromethyl)phenyl]pyridine-2-carboxamide]						90%		chromatographic logP ([1]; pH 2.7, log P (HCOOH), acidic range pH 2.7, 0.1% aqueous formic acid and acetonitrile, reversed-phase column (C 18), read-out: LOGP_HCOOH): 3.3; chromatographic logP ([1]; pH 7.8, LC-MS neutral range, pH 7.8, ammonium hydrogencarbonate/acetonitrile, read-out: log P (neutral)): 3.21; pest or weed control at 100 ppm (Ctenocephalides felis; Ctenocephalides felis, po, 48 h, read-out: efficacy (kill in %)): 100%; pest or weed control at 500 g/ha (Spodoptera frugiperda; Spodoptera frugiperda, foliar, 168 h, application rate 500 g/ha, read-out: efficacy (caterpillars killed)): 83%
3.99	3.96		CC(C)C(=O)Nc1cc(-c2ccc(C(F)(F)F)cc2)cc(C(=O)NCc2ccc(C#N)cc2F)n1 [Example I-078]	100%	100%	100%	100%	100%			efficacy (kill in %) (Musca domestica; application rate 100 ppm): 100%
	4.08	4.22	N#CC1CCC(CNC(=O)c2cc(-c3ccc(C(F)(F)C(F)(F)F)cc3)cc(NC(=O)C3CC3)n2)CC1 (centres unmarked) [Example I-195]	100%	100%	100%	100%	100%		100%	efficacy (kill in %) (Musca domestica; application rate 20 ppm): 100%; efficacy (kill in %) (Musca domestica; application rate 100 ppm): 100%
